From PMC9511441, “Semisynthetic teicoplanin derivatives with dual antimicrobial activity against SARS-CoV-2 and multiresistant bacteria” (Scientific Reports, 2022)
Entries after “also recorded” stand apart in the source; their conditions may differ. Where two headings read alike, the source gives them in different places.

What was measured:
[1] = tested on: SARS-CoV-2; assay: microbe, parasite or virus in culture; format: cell-based; settings: for EC50: Vero E6 cells, three days, XTT, read-out: EC50, CPE reduction, SARS-CoV-2 in Vero E6 cells
[2] = biological target: SARS-CoV-2 3CL^Pro (Severe acute respiratory syndrome coronavirus 2, UniProt P0DTD1); assay: biochemical; format: biochemical
[3] = Cytotoxicity in mock-infected HEL cells (MTS); format: cell-based, human; settings: human; mock-infected HEL cells, MTS, mean of 2–3 tests
[4] = biological target: T1, human recombinant cathepsin L (Homo sapiens, UniProt P07711); assay: biochemical; format: biochemical
T1 construct: made in house; host or cells: Escherichia coli
T1 sequence (P07711 114-333): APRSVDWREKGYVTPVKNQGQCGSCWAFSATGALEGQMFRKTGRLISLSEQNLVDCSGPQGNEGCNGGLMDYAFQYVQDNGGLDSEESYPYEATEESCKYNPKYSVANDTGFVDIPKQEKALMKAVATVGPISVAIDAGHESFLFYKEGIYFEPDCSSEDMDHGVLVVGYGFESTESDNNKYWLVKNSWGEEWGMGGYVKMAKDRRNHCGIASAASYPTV
Method: Cathepsin L inhibition was assessed as reported. Briefly, human recombinant cathepsin L was expressed in Escherichia coli[33]. Enzymatic activity was determined in 100 mM acetate buffer (pH 5.5) containing 0.1% PEG 8000, 5 mM cysteine and 1.5 mM EDTA. The enzyme was first activated in assay buffer for 5 min at 37 °C, after which it was added to the wells of a black microplate containing the Z-Phe-Arg-AMC substrate (Bachem) and compounds. Formation of the fluorescent cleavage product was monitored for 50 min at 37 °C, using a Tecan Infinit M1000 spectrofluorimeter set at 460 nm emission and 380 nm excitation wavelength. All assay mixtures contained 5% (v/v) DMSO and 0.01% Triton X-100 to prevent false-positive inhibition due to formation of compound aggregates. All measurements were performed in triplicate and repeated twice. The relative inhibition was calculated using the equation: Relative inhibition (%) = 100(1 − vi/vo), where vi and vo designate the reaction velocities in the presence and absence of inhibitor, respectively. IC50 values were determined from nine data points at different inhibitor concentrations.

[5] = Cytotoxicity in mock-infected VeroE6 cells (XTT); format: cell-based, African green monkey; settings: African green monkey; mock-infected Vero E6 cells, three days, XTT
[6] = tested on: VeroE6 cells; assay: Cytotoxicity in mock-infected VeroE6 cells (XTT); format: cell-based, African green monkey
[7] = tested on: SARS-CoV-2 pseudovirus; assay: microbe, parasite or virus in culture; format: cell-based; settings: for EC50: Vero cells, luciferase signal, mean ± SEM of 3 tests, read-out: EC50, inhibition of SARS-CoV-2 pseudovirus entry in Vero cells; for Inhibition of pseudovirus entry in Vero cells (in words): cathepsin-dependent endosomal pathway
[8] = tested on: SARS-CoV-2 pseudovirus; assay: microbe, parasite or virus in culture; format: cell-based; settings: for Inhibition of pseudovirus entry in A549-AT cells (in words): TMPRSS2-mediated uptake; for EC50: A549-AT cells (ACE2 and TMPRSS2), luciferase signal, mean ± SEM of 3 tests, read-out: EC50, inhibition of SARS-CoV-2 pseudovirus entry in A549-AT cells
[9] = in vitro; settings: human
[10] = tested on: HCoV-229E; assay: CPE reduction assay, HCoV-229E in HEL cells; format: cell-based; settings: for EC50: MTS, mean of 2–3 tests
[11] = tested on: SARS-CoV-2; assay: microbe, parasite or virus in culture; format: cell-based; settings: for EC50: Calu-3 cells, three days, XTT, read-out: EC50, CPE reduction, SARS-CoV-2 in Calu-3 cells
[12] = tested on: Acinetobacter baumannii ATCC BAA1605; assay: MIC against Gram-negative strain; settings: Acinetobacter baumannii ATCC BAA1605
[13] = tested on: HEL cells; assay: Cytotoxicity in mock-infected HEL cells (MTS); format: cell-based, human; settings: mock-infected HEL cells, MTS, mean of 2–3 tests
[14] = tested on: Escherichia coli ATCC 25218; assay: MIC against Gram-negative strain; settings: ATCC25218
[15] = tested on: Pseudomonas aeruginosa ATCC 27853; assay: MIC against Gram-negative strain; settings: ATCC27853
[16] = tested on: E. faecium; assay: microbe, parasite or virus in culture; format: cell-based
[17] = tested on: S. epidermidis; assay: microbe, parasite or virus in culture; format: cell-based
[18] = tested on: E. faecalis; assay: MIC, broth microdilution; format: cell-based
[19] = tested on: S. aureus; assay: MIC, broth microdilution; format: cell-based
[20] = tested on: S.pyogenes; assay: MIC, broth microdilution; format: cell-based
[21] = tested on: S. haemolyticus; assay: MIC, broth microdilution; format: cell-based
[22] = tested on: Klebsiella pneumoniae ST258 clone K 160/09; assay: MIC against Gram-negative strain; settings: Klebsiella pneumoniae ST258 clone K 160/09
[23] = tested on: Calu-3 cells; assay: Cytotoxicity in mock-infected Calu-3 cells (XTT); settings: read-out: CC50, Calu-3 cells, three days
[24] = Severe acute respiratory syndrome-related coronavirus

O=C(O)CCC(F)(F)C(F)(F)C(F)(F)C(F)(F)C(F)(F)C(F)(F)C(F)(F)C(F)(F)F [Compound 14]
EC50 ([1]; Severe acute respiratory syndrome coronavirus 2, Vero C1008, 72 h): 19 ± 1.5 µM | Reduction of the CPE of SARS-CoV-2 in VeroE6 cells (in words) ([1]; VeroE6 cells): did show antiviral activity | inhibition at 200 µM [2]: 12 ± 2% | CC50 [3]: > 100 µM | IC50 ([4]; pH 5.5, Z-Phe-Arg-AMC substrate, read-out: Cathepsin L IC50): > 500 µM | CC50 [5]: 39 ± 1.4 µM | Toxicity in VeroE6 cells (in words) ([6]; VeroE6 cells): quite toxic | EC50 [7, 24]: 13 ± 5 µM | Inhibition of pseudovirus entry in Vero cells (in words) [7]: inhibited both entry routes | Inhibition of pseudovirus entry in A549-AT cells (in words) [8]: inhibited both entry routes | EC50 [8, 24]: 24 ± 6 µM | CC50 [9]: ~53 µM | EC50 ([10]; Human coronavirus 229E): 69 µM | Activity against SARS-CoV-2 in Calu-3 cells (in words) [11]: active | EC50 ([11]; Severe acute respiratory syndrome coronavirus 2, 72 h): 46 ± 1.9 µM

teicoplanin [reference compound]
MIC [12]: 128 µg/mL | EC50 [1]: 16 ± 1.7 µM | 3CL^Pro % inhibition at 200 µM ([2]; at 200 µM): 13 ± 8% | CC50 [13]: > 100 µM | MIC [14]: 256 µg/mL | MIC [15]: 256 µg/mL | Average MIC value ([16]; E. faecium VAN^R,TEI^R/VanA, 8 strains): > 64 µg/mL | Average MIC value ([16]; E. faecium VAN^S, TEI^S, 1 strain): 0.5 µg/mL | MIC value ([16]; E.faecium E335, VAN,TEI,LNZ/VanA): >64 µg/mL | MIC value ([16]; E.faecium E355, VAN,TEI,LNZ/VanA): >64 µg/mL | MIC value ([16]; E.faecium E832, VAN,TEI,LNZ/VanA): >64 µg/mL | MIC value ([16]; E.faecium E854, VAN,TEI,LNZ/VanA): >64 µg/mL | MIC value ([16]; E.faecium E859, VAN,TEI,LNZ/VanA): >64 µg/mL | MIC value ([16]; E.faecium E1114, VAN,TEI,LNZ/VanA): >64 µg/mL | MIC value ([16]; E.faecium E1131, VAN,TEI,LNZ/VanA): >64 µg/mL | MIC value ([16]; E.faecium E1132, VAN,TEI,LNZ/VanA): >64 µg/mL | MIC value ([16]; E.faecium TX0016): 0,5 µg/ml | Average MIC value ([17]; S. epidermidis mecA, 6 strains): 26.7 µg/mL | MIC value ([17]; S.epidermidis ORI_R1, mecA): 32 µg/mL | MIC value ([17]; S.epidermidis ORI_R2, mecA): 16 µg/mL | MIC value ([17]; S.epidermidis ORI_R3, mecA): 32 µg/mL | MIC value ([17]; S.epidermidis ORI_R4, mecA): 16 µg/mL | MIC value ([17]; S.epidermidis TEI_R1, mecA): 32 µg/mL | MIC value ([17]; S.epidermidis TEI_R2, mecA): 32 µg/mL | Cathepsin L inhibition (in words) [4]: inactive | Cathepsin L inhibition at 50 µM ([4]; at 50 µM): 5% at 50 µM | Average MIC value ([18]; E. faecalis VAN^R,TEI^R/VanA, 1 strain): > 64 µg/mL | Average MIC value ([18]; E. faecalis VAN^S, TEI^S, 2 strains): 0.25 µg/mL | MIC value ([18]; E.faecalis JH2-2): 0,25 µg/ml | MIC value ([18]; E.faecalis OG1RF): 0,25 µg/ml | MIC value ([18]; E.faecalis V583, VAN,TEI/VanA): >64 µg/mL | MIC value ([19]; S. aureus 73OL, MRSA): 0,5 µg/ml | MIC value ([19]; S. aureus 214OL, MRSA): 2 µg/mL | MIC value ([19]; S. aureus 1041OL, MRSA): 1 µg/mL | MIC value ([19]; S. aureus A6918, MRSA): 1 µg/mL | MIC value ([19]; S. aureus A6919, MRSA): 0,5 µg/ml | MIC value ([19]; S. aureus ATCC29213, MSSA): 0,5 µg/ml | Average MIC value ([19]; S. aureus CA-MRSA, 1 strain): 0.125 µg/mL | Average MIC value ([19]; S. aureus MRSA, 7 strains): 1.43 µg/mL | MIC value ([19]; S. aureus MSSA476, MSSA): 0,25 µg/ml | Average MIC value ([19]; S. aureus MSSA, 4 strains): 0.375 µg/mL | MIC value ([19]; S. aureus Mu50, MRSA): 4 µg/mL | MIC value ([19]; S. aureus N315, MRSA): 1 µg/mL | MIC value ([19]; S. aureus Newman, MSSA): 0,25 µg/ml | MIC value ([19]; S. aureus SA564, MSSA): 0,5 µg/ml | MIC value ([19]; S. aureus USA300, CA-MRSA): 0,125 µg/ml | MIC value ([20]; S.pyogenes H232): 0,03125 µg/ml | MIC value ([20]; S.pyogenes H550): 0,25 µg/ml | MIC value ([20]; S.pyogenes H578): 0,25 µg/ml | Average MIC value ([21]; S. haemolyticus mecA, 6 strains): 112 µg/mL | MIC value ([21]; S.haemolyticus DALB_R1, mecA): 128 µg/mL | MIC value ([21]; S.haemolyticus DALB_R2, mecA): 256 µg/mL | MIC value ([21]; S.haemolyticus DALB_R3, mecA): 32 µg/mL | MIC value ([21]; S.haemolyticus DALB_R4, mecA): 64 µg/mL | MIC value ([21]; S.haemolyticus DALB_R5, mecA): 128 µg/mL | MIC value ([21]; S.haemolyticus ORI_R1, mecA): 64 µg/mL | CC50 ([6]; mock-infected Vero E6 cells, three days, XTT): > 100 µM | EC50 [7]: 21 ± 5 µM | Inhibition of pseudovirus entry in Vero cells (in words) [7]: moderately active | EC50 [8]: > 125 µM | Inhibition of pseudovirus entry in A549-AT cells (in words) [8]: inactive | Activity against HCoV-229E CPE (in words) [10]: inactive | EC50 [10]: > 100 µM | MIC [22]: 256 µg/mL | Activity against SARS-CoV-2 in Calu-3 cells (in words) [11]: inactive; also recorded: does not inhibit | EC50 [11]: > 100 µM | CC50 [23]: > 100 µM
